PubChem BioAssay (NCI)
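The concentration for 50% growth inhibition is given as GI50. TGI is the concentration that stops growth completely.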

Legend:
Assay in all cases: inhibition of tumour cell growth, NCI panel, 384-well format
NCI/ADR-RES ovarian = test system: NCI/ADR-RES ovarian
HL-60(TB) leukemia = test system: HL-60(TB) leukemia
TK-10 renal = test system: TK-10 renal
MDA-MB-468 breast = test system: MDA-MB-468 breast
UACC-257 melanoma = test system: UACC-257 melanoma
HOP-62 NSCLC = test system: HOP-62 NSCLC
K-562 leukemia = test system: K-562 leukemia
HCT-15 colon = test system: HCT-15 colon
OVCAR-4 ovarian = test system: OVCAR-4 ovarian
NCI-H322M lung = test system: NCI-H322M lung
SF-295 CNS = test system: SF-295 CNS
SK-OV-3 ovarian = test system: SK-OV-3 ovarian
RPMI-8226 leukemia = test system: RPMI-8226 leukemia
BT-549 breast = test system: BT-549 breast
CCRF-CEM leukemia = test system: CCRF-CEM leukemia
786-0 renal = test system: 786-0 renal
HCC-2998 colon = test system: HCC-2998 colon
HCT-116 colon = test system: HCT-116 colon
SF-268 CNS = test system: SF-268 CNS
OVCAR-8 ovarian = test system: OVCAR-8 ovarian
NCI-H460 NSCLC = test system: NCI-H460 NSCLC
NCI-H23 lung = test system: NCI-H23 lung
RXF 393 renal = test system: RXF 393 renal
OVCAR-3 ovarian = test system: OVCAR-3 ovarian
UACC-62 melanoma = test system: UACC-62 melanoma
HS 578T breast = test system: HS 578T breast
NCI-H226 lung = test system: NCI-H226 lung
MCF7 breast = test system: MCF7 breast
DU-145 prostate = test system: DU-145 prostate
PC-3 prostate = test system: PC-3 prostate
EKVX NSCLC = test system: EKVX NSCLC
SR leukemia = test system: SR leukemia
NCI-H522 lung = test system: NCI-H522 lung
CAKI-1 renal = test system: CAKI-1 renal
U251 glioblastoma = test system: U251 glioblastoma
SF-539 CNS = test system: SF-539 CNS
SW-620 colon = test system: SW-620 colon
T-47D breast = test system: T-47D breast
MALME-3M melanoma = test system: MALME-3M melanoma
A549 NSCLC = test system: A549 NSCLC
SN12C renal = test system: SN12C renal
COLO 205 colon = test system: COLO 205 colon
SK-MEL-28 melanoma = test system: SK-MEL-28 melanoma
LOX IMVI melanoma = test system: LOX IMVI melanoma
MDA-MB-435 melanoma = test system: MDA-MB-435 melanoma
MDA-MB-231 breast = test system: MDA-MB-231 breast
ACHN renal = test system: ACHN renal
MOLT-4 leukemia = test system: MOLT-4 leukemia
SK-MEL-5 melanoma = test system: SK-MEL-5 melanoma
IGROV1 ovarian = test system: IGROV1 ovarian
UO-31 renal = test system: UO-31 renal

Work on `COc1ccc(/C=C\c2cc(OC)c(OC)c(OC)c2)cc1NC(=O)[C@@H](N)CO` yielded a GI50 (NCI/ADR-RES ovarian) of less than 10 nM, a TGI (NCI/ADR-RES ovarian) of less than 10 nM and a GI50 (HL-60(TB) leukemia) of less than 10 nM. It also gave a TGI (HL-60(TB) leukemia) of less than 10 nM, a GI50 (TK-10 renal) of less than 10 nM and a TGI (TK-10 renal) greater than 100000 nM. For the same compound, the GI50 (MDA-MB-468 breast) was 13.3 nM, the TGI (MDA-MB-468 breast) was 29.7 nM and the GI50 (UACC-257 melanoma) was less than 10 nM. For the same compound, the TGI (UACC-257 melanoma) was greater than 100000 nM, the GI50 (HOP-62 NSCLC) was less than 10 nM and the TGI (HOP-62 NSCLC) was 196 nM. It also gave a GI50 (K-562 leukemia) of less than 10 nM, a TGI (K-562 leukemia) of 12.3 nM and a GI50 (HCT-15 colon) of less than 10 nM. For the same compound, the TGI (HCT-15 colon) was 92.2 nM, the GI50 (OVCAR-4 ovarian) was 13.7 nM and the TGI (OVCAR-4 ovarian) was greater than 100000 nM. The GI50 (NCI-H322M lung) was less than 10 nM, the TGI (NCI-H322M lung) was greater than 100000 nM and the GI50 (SF-295 CNS) was less than 10 nM. The TGI (SF-295 CNS) was less than 10 nM, the GI50 (SK-OV-3 ovarian) was less than 10 nM and the TGI (SK-OV-3 ovarian) was 12000 nM. It also gave a GI50 (RPMI-8226 leukemia) of less than 10 nM, a TGI (RPMI-8226 leukemia) of less than 10 nM and a GI50 (BT-549 breast) of less than 10 nM. For the same compound, the TGI (BT-549 breast) was 25.2 nM, the GI50 (CCRF-CEM leukemia) was less than 10 nM and the TGI (CCRF-CEM leukemia) was less than 10 nM. The GI50 ([…]-0 renal) was less than 10 nM, the TGI (786-0 renal) was 58.2 nM and the GI50 (HCC-2998 colon) was less than 10 nM. For the same compound, the TGI (HCC-2998 colon) was 29.7 nM, the GI50 (HCT-116 colon) was less than 10 nM and the TGI (HCT-116 colon) was 103 nM. For the same compound, the GI50 (SF-268 CNS) was less than 10 nM, the TGI (SF-268 CNS) was 78.5 nM and the GI50 (OVCAR-8 ovarian) was 10.4 nM. The TGI (OVCAR-8 ovarian) was 35.9 nM, the GI50 (NCI-H460 NSCLC) was 17.3 nM and the TGI (NCI-H460 NSCLC) was 36 nM. It also gave a GI50 (NCI-H23 lung) of less than 10 nM, a TGI (NCI-H23 lung) of 16.3 nM and a GI50 (RXF 393 renal) of less than 10 nM. The TGI (RXF 393 renal) was less than 10 nM, the GI50 (OVCAR-3 ovarian) was less than 10 nM and the TGI (OVCAR-3 ovarian) was 20.7 nM. For the same compound, the GI50 (UACC-62 melanoma) was less than 10 nM, the TGI (UACC-62 melanoma) was greater than 100000 nM and the GI50 (HS 578T breast) was less than 10 nM. It also gave a TGI (HS 578T breast) of less than 10 nM, a GI50 (NCI-H226 lung) of less than 10 nM and a TGI (NCI-H226 lung) of 25.3 nM. For the same compound, the GI50 (MCF7 breast) was 24.4 nM, the TGI (MCF7 breast) was 12700 nM and the GI50 (DU-145 prostate) was less than 10 nM. For the same compound, the TGI (DU-145 prostate) was 70.1 nM, the GI50 (PC-3 prostate) was less than 10 nM and the TGI (PC-3 prostate) was greater than 100000 nM. The GI50 (EKVX NSCLC) was less than 10 nM, the TGI (EKVX NSCLC) was greater than 100000 nM and the GI50 (SR leukemia) was less than 10 nM. The TGI (SR leukemia) was less than 10 nM, the GI50 (NCI-H522 lung) was less than 10 nM and the TGI (NCI-H522 lung) was less than 10 nM. For the same compound, the GI50 (CAKI-1 renal) was less than 10 nM, the TGI (CAKI-1 renal) was greater than 100000 nM and the GI50 (U251 glioblastoma) was less than 10 nM. The TGI (U251 glioblastoma) was 17900 nM, the GI50 (SF-539 CNS) was less than 10 nM and the TGI (SF-539 CNS) was 27.7 nM. The GI50 (SW-620 colon) was less than 10 nM, the TGI (SW-620 colon) was greater than 100000 nM and the GI50 (T-47D breast) was less than 10 nM. It also gave a TGI (T-47D breast) of 68600 nM, a GI50 (MALME-3M melanoma) of less than 10 nM and a TGI (MALME-3M melanoma) greater than 100000 nM. For the same compound, the GI50 (A549 NSCLC) was less than 10 nM, the TGI (A549 NSCLC) was greater than 100000 nM and the GI50 (SN12C renal) was less than 10 nM. For the same compound, the TGI (SN12C renal) was 11900 nM, the GI50 (COLO 205 colon) was less than 10 nM and the TGI (COLO 205 colon) was less than 10 nM. The GI50 (SK-MEL-28 melanoma) was less than 10 nM, the TGI (SK-MEL-28 melanoma) was greater than 100000 nM and the GI50 (LOX IMVI melanoma) was 12.2 nM. For the same compound, the TGI (LOX IMVI melanoma) was 80.3 nM, the GI50 (MDA-MB-435 melanoma) was less than 10 nM and the TGI (MDA-MB-435 melanoma) was less than 10 nM. It also gave a GI50 (MDA-MB-231 breast) of less than 10 nM, a TGI (MDA-MB-231 breast) greater than 100000 nM and a GI50 (ACHN renal) of less than 10 nM. It also gave a TGI (ACHN renal) of 52200 nM, a GI50 (MOLT-4 leukemia) of less than 10 nM and a TGI (MOLT-4 leukemia) of less than 10 nM. It also gave a GI50 (SK-MEL-5 melanoma) of less than 10 nM, a TGI (SK-MEL-5 melanoma) of less than 10 nM and a GI50 (IGROV1 ovarian) of less than 10 nM. The TGI (IGROV1 ovarian) was 35900 nM, the GI50 (UO-31 renal) was less than 10 nM and the TGI (UO-31 renal) was greater than 100000 nM.
